Toxic doses and inconclusive results are not listed. Rule for the calls: active = survival T/C of 150% or more; inactive = T/C below 125% in these data.
System: BDF1 mice, P388 leukemia ip, median survival T/C
Experiment: NCI In Vivo Anticancer Drug Screen. Data for tumor model P388 Leukemia (intraperitoneal) in B6D2F1 (BDF1) mice
Details: endpoint: median survival time, higher = longer survival
Outline: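 Read-out is survival of treated animals expressed relative to the vehicle group, as a T/C ratio.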

[1] = dose: 100.0 mg/kg/injection, schedule: Q04DX003 (ip), vehicle: saline
[2] = dose: 200.0 mg/kg/injection, schedule: Q04DX003 (ip), vehicle: saline
[3] = dose: 400.0 mg/kg/injection, schedule: Q04DX003 (ip), vehicle: saline
[4] = dose: 100.0 mg/kg/injection, schedule: Q01DX009 (ip), vehicle: saline with Tween-80
[5] = dose: 200.0 mg/kg/injection, schedule: Q01DX009 (ip), vehicle: saline with Tween-80
[6] = dose: 25.0 mg/kg/injection, schedule: Q01DX009 (ip), vehicle: saline with Tween-80
[7] = dose: 50.0 mg/kg/injection, schedule: Q01DX009 (ip), vehicle: saline with Tween-80
[8] = dose: 50.0 mg/kg/injection, schedule: Q01DX010 (ip), vehicle: saline

Measured: T/C

Oc1ccc(N=Cc2ccccc2O)cc1
inactive: dose: 100.0 mg/kg/injection, schedule: Q01DX009 (ip), vehicle: saline 108 % of control | [1] 105 % of control | [2] 100 % of control | [3] 110 % of control

NC(C(=O)O)c1cc(=O)[nH]o1 (stereo unspecified)
inactive: dose: 0.25 mg/kg/injection, schedule: Q01DX009 (ip), vehicle: Klucel (hydroxypropylcellulose) (HPC) 86 % of control | dose: 0.5 mg/kg/injection, schedule: Q01DX009 (ip), vehicle: Klucel (hydroxypropylcellulose) (HPC) 97 % of control | dose: 1.0 mg/kg/injection, schedule: Q01DX009 (ip), vehicle: Klucel (hydroxypropylcellulose) (HPC) 112 % of control

O=C1CC(=O)N(c2ccccc2)C(=O)N1
inactive: [4] 94 % of control | [5] 88 % of control | dose: 400.0 mg/kg/injection, schedule: Q01DX009 (ip), vehicle: saline with Tween-80 106 % of control

CCCCCCC#CC(=O)OC
inactive: [6] 106 % of control | [7] 106 % of control | [4] 109 % of control | [5] 106 % of control

N[C@@H](Cc1ccc(O)c(O)c1)C(=O)O
inactive: [8] 92 % of control | dose: 100.0 mg/kg/injection, schedule: Q01DX010 (ip), vehicle: saline 96 % of control | dose: 200.0 mg/kg/injection, schedule: Q01DX010 (ip), vehicle: saline 100 % of control | dose: 400.0 mg/kg/injection, schedule: Q01DX010 (ip), vehicle: saline 107 % of control

COc1cc2c(cc1Oc1c(Oc3c(O)c(OC)cc4c3C(CC(C)C)N(C)CC4)c(OC)cc3c1C(CC(C)C)N(C)CC3)C(CC(C)C)N(C)CC2 (stereo unspecified)
inactive: dose: 12.5 mg/kg/injection, schedule: Q01DX010 (ip), vehicle: saline 95 % of control | dose: 25.0 mg/kg/injection, schedule: Q01DX010 (ip), vehicle: saline 90 % of control | [8] 95 % of control

COc1ccc(C2=C/C(=C3/C(=O)C=C(C)OC3=O)SS2)cc1
inactive: [7] 90 % of control | [4] 92 % of control | [5] 97 % of control

CNC(=O)OCc1c(-c2ccccc2)nc2sccn12
inactive: dose: 12.5 mg/kg/injection, schedule: Q01DX001 (ip), vehicle: Klucel (hydroxypropylcellulose) (HPC) 109 % of control | dose: 25.0 mg/kg/injection, schedule: Q01DX001 (ip), vehicle: Klucel (hydroxypropylcellulose) (HPC) 113 % of control

Cc1ccc(S(=O)(=O)c2ccc(Sc3cccc[n+]3[O-])c3nonc23)cc1
inactive: [6] 119 % of control | [4] 111 % of control

O=C(O)CCCCCS
inactive: dose: 50.0 mg/kg/injection, schedule: Q01DX009 (ip), vehicle: Klucel (hydroxypropylcellulose) (HPC) 100 % of control | dose: 100.0 mg/kg/injection, schedule: Q01DX009 (ip), vehicle: Klucel (hydroxypropylcellulose) (HPC) 102 % of control | dose: 200.0 mg/kg/injection, schedule: Q01DX009 (ip), vehicle: Klucel (hydroxypropylcellulose) (HPC) 99 % of control

C=C1C(=O)OC2C=C(C)CC3C=C(CCC=C(C)CCC12)C(=O)O3 (stereo unspecified)
inactive: dose: 10.0 mg/kg/injection, schedule: Q01DX009 (ip), vehicle: saline 88 % of control | dose: 30.0 mg/kg/injection, schedule: Q01DX009 (ip), vehicle: saline 105 % of control | dose: 40.0 mg/kg/injection, schedule: Q01DX009 (ip), vehicle: saline 94 % of control | dose: 60.0 mg/kg/injection, schedule: Q01DX009 (ip), vehicle: saline 120 % of control | dose: 120.0 mg/kg/injection, schedule: Q01DX009 (ip), vehicle: saline 112 % of control

CC(C)(CO)Nc1ccccc1
inactive: [1] 110 % of control | [2] 100 % of control | [3] 100 % of control

CN(C)CCCN1c2ccccc2Sc2ccc(Cl)cc21
inactive: dose: 6.25 mg/kg/injection, schedule: Q01DX009 (ip), vehicle: saline 109 % of control | dose: 12.5 mg/kg/injection, schedule: Q01DX009 (ip), vehicle: saline 109 % of control | dose: 12.5 mg/kg/injection, schedule: Q04DX003 (ip), vehicle: saline with Tween-80 104 % of control | dose: 12.5 mg/kg/injection, schedule: Q04DX003 (ip), vehicle: saline 106 % of control | dose: 25.0 mg/kg/injection, schedule: Q04DX003 (ip), vehicle: saline with Tween-80 108 % of control | dose: 25.0 mg/kg/injection, schedule: Q04DX003 (ip), vehicle: saline 89 % of control | dose: 50.0 mg/kg/injection, schedule: Q04DX003 (ip), vehicle: saline 112 % of control

Source: PubChem BioAssay AID328 (DTP/NCI, 2004)
